# Measurements from US20210283110A1, “COMPOUND FOR USE IN THE TREATMENT OF A DISEASE CHARACTERIZED BY DYSREGULATED MUCUS PRODUCTION AND/OR SECRETION” (UNIVERSITÄT REGENSBURG, priority 2018, published 2021).
# “Also recorded” adds a separate entry of the source.
# Experiments:
# [1] = test system: airway epithelial specific TMEM16A knockout mice; test: Airway mucus in airway epithelial specific TMEM16A knockout mice; type: in vivo, mouse; settings: 1 mg/kg intraperitoneally for 5 days
# Procedure: In another set of experiments, airway epithelial specific TMEM16A knockout mice were treated with benzbromarone. Airway epithelial specific TMEM16A knockout mice accumulate mucus in club cells, likely due to a secretory defect (FIG. 20A). Benzbromarone […], intraperitoneally) was applied for 5 days to mice with an airway epithelial specific knockout of TMEM16A. […] Thus benzbromarone is beneficial in the treatment of CF by reducing airway mucus plugging and therefore improving lung function.
# [2] = test system: TMEM16A-expressing HEK293 cells; test: FM4-64 fluorescence (exocytosis) in TMEM16A-expressing HEK293 cells; type: cell-based; settings: 10 μM
# Procedure: FIG. 8: TMEM16A controls exocytosis. • A) Whole cell current/voltage relationships obtained in mock transfected and TMEM16A (T16A) expressing HEK293 cells. Stimulation with the Ca^2+ ionophore ionomycin (Iono; 1 μM) activated whole cell currents in TMEM16A-expressing cells (n=12). • B) Increase of FM4-64 fluorescence upon stimulation with ionomycin in mock-transfected and TMEM16A-expressing cells, and inhibition by CaCCinhAO1 (AO1; 10 μM) (n=30). • C) Effect of ATP, or • D) CCH (both 100 μM) on FM4-64 fluorescence in cells expressing P2Y2 or M3 receptors (n=30). Mean±SEM. *significant increase by Iono (paired t-test). #significant difference when compared to mock (unpaired t-test).
# [3] = test system: airways of OVA-sensitized mice; test: OVA-induced allergic airway inflammation in mice (alcian blue mucus staining, airway cross section, CD45 infiltration); type: in vivo, mouse; settings: for OVA-induced mucus production: wt mice, tracheal instillation, niflumic acid 20 μM or niclosamide 5 μM
# Procedure: Intestinal sections were collected for histological analyses. Mouse airways were fixed by transcardial fixation and were embedded in paraffin or were used as cryosections. For paraffin sections, tissues were fixed in 4% paraformaldehyde (PFA), 0.2% picric acid and 3.4% sucrose in PBS, and were washed in methanol before embedding in paraffin. Sections were stained according to standard Periodic acid-Schiff (PAS) or Alcian Blue methods and assessed by light microscopy.
# Mouse models were performed according to the previous example. For investigating mucus, IL-8 release, and leukocytes, tissues were fixed using 4% paraformaldehyde (PFA), 0.2% picric acid and 3.4% sucrose in PBS and washed in methanol before embedding in paraffin. Mucus was analyzed using standard Periodic acid-Schiff (PAS) or alcian blue staining. MUC5AC was stained using anti-MUC5AC mouse antibody (1:200, Abcam, ab3649) and a secondary antibody conjugated with Alexa488 (Life Technologies, A-21206). Nuclei were stained with Hoe33342 (0.1 μg/ml PBS, Aplichem, Darmstadt, Germany). Quantikine ELISA kits (R&D systems) were used to measure secretion of the cytokine IL-8 by Calu3 cells.
# All methods were performed as described in the previous examples. Mice were treated with ovalbumin (OVA) to induce an allergic reaction which leads to airway inflammation. […] After allergization with OVA and development of airway inflammation, excessive mucus production and inflammatory infiltration with immune cells is observed. Activation of cholinergic receptors using the muscarinic agonist carbachol (CCH) results in constriction of the airways and secretion of mucus (FIG. 5A-C). 3-day treatment using niclosamide reduced the CCH-induced constriction of the airways (FIG. 1). Furthermore, mucus secretion and inflammatory infiltrates were reduced.
# OVA-induced allergic airway inflammation in mice caused pronounced airway goblet cell metaplasia. […] NFA is a well know inhibitor of Ca^2+ activated Cl^− channels and inhibits TMEM16A. The two main TMEM16 paralogs expressed in airway epithelial and smooth muscle cells, TMEM16A and TMEM16F, were expressed in HEK293 cells and the whole cell currents upon activation by the Ca^2+ ionophore ionomycin (Iono) were measured. […] Novel therapeutic strategies for the treatment of inflammatory airway diseases such as CF may therefore consider the use of inhibitors of TMEM16.
# The present inventors disclose that airway epithelial knockout of TMEM16A causes a defect in basal, i.e. ATP-mediated mucus secretion. […] Mucus synthesis under inflammatory (OVA) conditions and mucus release upon cholinergic stimulation, however, were not compromised (FIG. 16C). […] Because basal mucus production still occurs in the absence of TMEM16A, other TMEM16 paralogs may also be in charge of mucus synthesis.
# [4] = target: T1, TMEM16A (Homo sapiens, UniProt Q5XXA6); test: Whole cell currents in HEK293 cells expressing TMEM16A (patch clamp); type: cell-based; parameters: expressed in transfected cells; host or cells: HEK293 cells; settings: HEK293; 1 nM ionomycin; NFA
# T1 sequence (Q5XXA6 1-986): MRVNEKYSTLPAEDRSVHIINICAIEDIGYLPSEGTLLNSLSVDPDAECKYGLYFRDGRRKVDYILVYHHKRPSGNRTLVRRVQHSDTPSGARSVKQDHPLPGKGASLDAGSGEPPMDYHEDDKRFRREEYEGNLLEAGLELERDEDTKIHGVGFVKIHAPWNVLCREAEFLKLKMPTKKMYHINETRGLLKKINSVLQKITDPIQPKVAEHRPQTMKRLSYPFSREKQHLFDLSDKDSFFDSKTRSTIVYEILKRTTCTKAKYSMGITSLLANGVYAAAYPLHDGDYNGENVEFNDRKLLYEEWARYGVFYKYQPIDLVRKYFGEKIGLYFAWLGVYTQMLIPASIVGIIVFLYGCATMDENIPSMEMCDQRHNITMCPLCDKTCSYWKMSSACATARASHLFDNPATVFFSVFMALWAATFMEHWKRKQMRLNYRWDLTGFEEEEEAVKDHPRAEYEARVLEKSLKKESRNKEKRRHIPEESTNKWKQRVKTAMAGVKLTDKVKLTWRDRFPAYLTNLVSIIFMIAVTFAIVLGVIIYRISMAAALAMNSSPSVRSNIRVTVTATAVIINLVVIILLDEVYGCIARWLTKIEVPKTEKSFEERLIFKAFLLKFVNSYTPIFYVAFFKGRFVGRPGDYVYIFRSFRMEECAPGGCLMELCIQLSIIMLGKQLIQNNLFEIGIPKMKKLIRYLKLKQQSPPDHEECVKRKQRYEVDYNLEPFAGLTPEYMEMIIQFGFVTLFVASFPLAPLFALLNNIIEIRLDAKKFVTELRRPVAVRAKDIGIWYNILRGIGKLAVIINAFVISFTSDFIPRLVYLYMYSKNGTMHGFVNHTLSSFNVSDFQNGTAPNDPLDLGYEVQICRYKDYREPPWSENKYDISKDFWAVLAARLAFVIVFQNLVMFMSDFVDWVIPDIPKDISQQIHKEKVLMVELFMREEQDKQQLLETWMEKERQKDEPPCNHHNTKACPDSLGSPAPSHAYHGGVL
# Procedure: (§1) FIG. 14: The TMEM16-inhibitor niflumic acid attenuates inflammatory airway disease. • A,B) OVA-sensitization induced pronounced goblet cell metaplasia as indicated by alcian blue positivity. Exposure to carbachol (CCH, 25 mg/ml, nebulizer) induced release of mucus and airway […]. Bars indicate […]. […] Mean±SEM; *significant inhibition by NFA (paired ttest). # significant difference when compared to OVA (unpaired t-test). (n) number of airways analysed or number of cells examined.
# (§2) FIG. 15: Inhibition of TMEM16A and TMEM16F by niclosamide. • A) TMEM16A whole cell currents in overexpressing HEK293 cells. […]
# (§3) OVA-induced allergic airway inflammation in mice caused pronounced airway goblet cell metaplasia. […] The two main TMEM16 paralogs expressed in airway epithelial and smooth muscle cells, TMEM16A and TMEM16F, were expressed in HEK293 cells and the whole cell currents upon activation by the Ca^2+ ionophore ionomycin (Iono) were measured. […]
# (§4) Similar to TMEM16A, also overexpressed TMEM16F was inhibited by niclosamide (FIG. 15D). […] TMEM16A was activated by ionomycin and TMEM16A currents were measured as iodide quenching.
# [5] = target: T2, TMEM16F (Homo sapiens, UniProt Q4KMQ2); test: Whole cell currents in HEK293 cells expressing TMEM16F (patch clamp); type: cell-based; settings: HEK293; 1 nM ionomycin; NFA
# T2 construct: expressed in transfected cells; host or cells: HEK293 cells
# T2 sequence (Q4KMQ2 1-910): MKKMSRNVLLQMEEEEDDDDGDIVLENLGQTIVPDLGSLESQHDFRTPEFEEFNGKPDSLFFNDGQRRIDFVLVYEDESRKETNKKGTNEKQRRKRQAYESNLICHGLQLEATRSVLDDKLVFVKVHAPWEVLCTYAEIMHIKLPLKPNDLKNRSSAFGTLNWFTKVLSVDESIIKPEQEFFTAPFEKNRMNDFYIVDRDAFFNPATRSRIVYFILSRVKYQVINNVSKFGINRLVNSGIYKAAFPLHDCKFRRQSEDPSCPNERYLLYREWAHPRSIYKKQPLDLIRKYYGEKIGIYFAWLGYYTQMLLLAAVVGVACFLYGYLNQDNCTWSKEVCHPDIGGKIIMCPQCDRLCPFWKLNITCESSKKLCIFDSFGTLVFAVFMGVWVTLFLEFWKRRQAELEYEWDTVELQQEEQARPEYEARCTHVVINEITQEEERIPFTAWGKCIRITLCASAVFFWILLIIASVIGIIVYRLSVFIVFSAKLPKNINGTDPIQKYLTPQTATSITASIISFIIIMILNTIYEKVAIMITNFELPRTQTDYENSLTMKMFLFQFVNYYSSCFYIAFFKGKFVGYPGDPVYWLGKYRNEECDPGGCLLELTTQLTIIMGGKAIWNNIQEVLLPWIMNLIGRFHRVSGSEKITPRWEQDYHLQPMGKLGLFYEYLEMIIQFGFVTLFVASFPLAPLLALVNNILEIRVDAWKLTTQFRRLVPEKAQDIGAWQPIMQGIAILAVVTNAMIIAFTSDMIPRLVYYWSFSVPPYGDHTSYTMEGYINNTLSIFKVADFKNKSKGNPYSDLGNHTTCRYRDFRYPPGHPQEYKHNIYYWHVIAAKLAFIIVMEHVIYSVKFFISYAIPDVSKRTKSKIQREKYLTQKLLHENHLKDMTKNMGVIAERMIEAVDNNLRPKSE
# Procedure: as §1, §2, §3, §4
# [6] = test system: endogenous TMEM16A; test: Iodide quenching of YFP in HT29 cells stimulated with ionomycin; type: cell-based
# Procedure: FIG. 15: Inhibition of TMEM16A and TMEM16F by niclosamide. • A) TMEM16A whole cell currents in overexpressing HEK293 cells. […] Rate of YFP quenching (arbitrary units (au/second), when applying 20 mM iodide to the extracellular bath solution. HT29 cells stably overexpressing YFP were stimulated with […] ionomycin. 100,000 cells were seeded/well. Mean±SEM; (number of experiments) #significant inhibition when compared to the absence of the inhibitor (p<0.05; unpaired t-test); *significant activation by UTP (paired t-test).
# Similar to TMEM16A, also overexpressed TMEM16F was inhibited by niclosamide (FIG. 15D). The effect of niclosamide was also examined on endogenous TMEM16A expressed in HT29 colonic carcinoma cells, which were stably transfected with iodide-sensitive yellow fluorescent protein (YFP). TMEM16A was activated by ionomycin and TMEM16A currents were measured as iodide quenching.
# [7] = OVA-sensitized mice, acute exposure to TMEM16A activator
# [8] = OVA-sensitized mice, 20 mg/kg/day intratracheal for three days before CCH, 20 mg/kg/day
compound,measurement,setting,value
"CCc1oc2ccccc2c1C(=O)c1cc(Br)c(O)c(Br)c1 [Benzbromarone, (3,5-dibromo-4-hydroxyphenyl) (2-ethyl-1-benzofuran-3-yl)methanone]",mucus production,[1],largely reduced
CC(C)(C)C1CCc2c(sc(NC(=O)c3ccco3)c2C(=O)O)C1 (stereo not drawn) [CaCCinhAO1],increase of FM4-64 fluorescence upon stimulation with ionomycin,[2],inhibition
COCCN(C(=O)c1cc(OC)c(OC)c(OC)c1)c1nc(-c2ccccc2)cs1 [Eact],airway contraction,[3]; [7],airway contraction
same,mucus release,[3]; [7],induces massive mucus release
"O=C(O)c1cccnc1Nc1cccc(C(F)(F)F)c1 [NFA, niflumic acid]",CCH-induced airway contraction (airway cross sections),[3]; [8],completely blocked; also recorded: strongly attenuated
same,mucus production / airway mucus,[3]; [8],abolished; also recorded: strongly attenuated
same,OVA-induced mucus production,[3],strongly reduced
same,OVA-induced mucus production,[3]; listed as niflumic acid,inhibited mucus production
same,TMEM16A whole cell current activated by ionomycin,[4],potently suppressed
same,TMEM16F whole cell current activated by ionomycin,[5],potently suppressed
"O=C(Nc1ncc([N+](=O)[O-])s1)c1ccccc1O [tizoxanide, 2-hydroxy-N-(5-nitro-1,3-thiazol-2-yl)benzamide]",potency compared with CaCCinhAO1 or dichlorophen,[6]; HT29 YFP iodide quenching,more potent
same,inhibition of endogenous TMEM16A (iodide quenching of YFP),"[6]; HT29 cells stably expressing YFP, ionomycin, 20 mM iodide",low nanomolar range
